Assays:
rgRSV224 virus = experiment: Antiviral activity: rgRSV224 (GFP) replication in HeLa cells; assay type: cell-based, respiratory syncytial virus (RSV); conditions: for EC50: human respiratory syncytial virus, HeLa, 72 h, read-out: RSV HELA pEC50, rgRSV224 virus (MOI=1), HeLa cells, GFP expression, three days post-virus exposure (converted)
Protocol: Black 384-well clear-bottom microtiter plates (Corning, Amsterdam, The Netherlands) were filled via acoustic drop ejection using the echo liquid handler (Labcyte, Sunnyvale, Calif.), 200 nL of compound stock solutions (100% DMSO) were transferred to the assay plates, 9 serial 4-fold dilutions of compound were made, creating per quadrant the same compound concentration. The assay was initiated by adding 10 μL of culture medium to each well (RPMI medium without phenol red, 10% FBS-heat inactivated, 0.04% gentamycin (50 mg/mL). All addition steps are done by using a multidrop dispenser (Thermo Scientific, Erembodegem, Belgium). Next, rgRSV224 virus (MOI=1) diluted in culture medium was added to the plates, rgRSV224 virus is an engineered virus that includes an additional GFP gene (Hallak L K, Spillmann D. Collins P L, Peeples M E.
(§1) Glycosaminoglycan sulfation requirements for respiratory syncytial virus infection; Journal of virology (2000), 74(22), 10508-13) and was in-licensed from the NIH (Bethesda, Md., USA). Finally, 20 μL of a HeLa cell suspension (3,000 cells/well) were plated. Medium, virus- and mock-infected controls were included in each test. The wells contain 0.05% DMSO per volume. Cells were incubated at 37° C. in a 5% CO2 atmosphere. Three days post-virus exposure, viral replication was quantified by measuring GFP expression in the cells by an in house developed MSM laser microscope (Tibotec. Beerse, Belgium). The EC50 was defined as the 50% inhibitory concentration for GFP expression. In parallel, compounds were incubated for three days in a set of white 384-well microtiter plates (Corning) and the cytotoxicity of compounds in HeLa cells was determined by measuring the ATP content of the cells using the ATPlite kit (PerkinElmer, Zaventem, Belgium) according to the manufacturer's instructions. The CC50 was defined as the 50% concentration for cytotoxicity.

HeLa cells = experiment: Cytotoxicity in HeLa cells (ATP content, ATPlite kit); assay type: cell-based; conditions: three days incubation
Protocol: as §1

[1] = Cytotoxicity in HeLa cells (ATP content, ATPlite kit); assay type: cell-based; conditions: human, three days incubation, read-out: TOX HELA pCC50 (converted)
Protocol: as §1

For `COc1ccc(-c2ncccc2N2CCN(c3ccncc3)CC2)cc1` [Compound 4], the “RSV HELA pEC50” value (rgRSV224 virus; rgRSV224 virus (MOI=1), HeLa cells, GFP expression, three days post-virus exposure) was 6.38, the “TOX HELA pCC50” value (HeLa cells) was <4.01 and the melting point was 216 °C.
`Clc1ccc(-c2ncccc2N2CCN(c3ccncc3)CC2)cc1Cl` [Compound 11] gave an EC50 (rgRSV224 virus) of 269 nM, a CC50 at 3 days [1] of 28200 nM and a melting point of 159.5 °C.
For `CC(=O)c1cccc(-c2ncccc2N2CCN(c3ccccc3)CC2)c1` [Compound 8], the EC50 (rgRSV224 virus) was 646 nM, the CC50 at 3 days [1] was > 100000 nM and the melting point was 175.94 °C.
With `CSc1ccc(-c2ncccc2N2CCN(c3ccncc3)CC2)cc1` [Compound 35] the EC50 (rgRSV224 virus) was 117 nM, the CC50 at 3 days [1] was 45700 nM and the melting point was 160 °C.
With `OCCCn1c(-c2ncccc2N2CCN(c3ccncc3)CC2)cc2ccccc21` [Compound 50] the EC50 (rgRSV224 virus) was 6.61 nM, the CC50 at 3 days [1] was > 100000 nM and the melting point was 110 °C.
Molecule `c1coc(-c2ccc(-c3nccnc3N3CCN(c4ccncc4)CC3)cc2)c1` [Compound 55] has an EC50 (rgRSV224 virus) of 794 nM, a CC50 at 3 days [1] of 36300 nM and a melting point of 153.75 °C.
In the case of `OC(c1ccccc1)(c1ccccc1)c1ncccc1N1CCN(c2ccncc2)CC1` [Compound 68], the EC50 (rgRSV224 virus) is reported as 25.1 nM, the CC50 at 3 days [1] is reported as > 25100 nM and the melting point is reported as 260 °C.
Work on `c1cnc(-c2ccc3c(c2)OCCO3)c(N2CCN(c3ccncc3)CC2)c1` [Compound 22] yielded an EC50 (rgRSV224 virus) of 537 nM, a CC50 at 3 days [1] of 398 nM and a melting point of 88 °C.
`Clc1cc(N2CCN(c3cccnc3-c3ccccc3)CC2)ccn1` [Compound 32] gave an EC50 (rgRSV224 virus) of 105 nM, a CC50 at 3 days [1] of 135 nM and a melting point of 122 °C.
In the case of `c1cnc(-c2cc3ccccc3o2)c(N2CCN(c3ccncc3)CC2)c1` [Compound 23], the EC50 (rgRSV224 virus) is reported as 58.9 nM, the CC50 at 3 days [1] is reported as > 50100 nM and the melting point is reported as 252 °C.
`Cn1ccc2c(-c3ncccc3N3CCN(c4ccncc4)CC3)cccc21` [Compound 43] showed an EC50 (rgRSV224 virus) of 30.2 nM, a CC50 at 3 days [1] of 45700 nM and a melting point of 170 °C.
`c1ccc(-c2ccc(-c3ncccc3N3CCN(c4ccncc4)CC3)cc2)cc1` [Compound 59] showed an EC50 (rgRSV224 virus) of 525 nM, a CC50 at 3 days [1] of 10700 nM and a melting point of 98 °C.
`c1ccc(Oc2nccnc2N2CCN(c3ccncc3)CC2)cc1` [Compound 54] gave an EC50 (rgRSV224 virus) of 10700 nM, a CC50 at 3 days [1] of 87100 nM and a melting point of 130 °C.
With `c1cnc(N2CCN(c3ccncc3)CC2)c(N2CCN(c3ccncc3)CC2)c1` [Compound 69] the EC50 (rgRSV224 virus) was 933 nM, the CC50 at 3 days [1] was 40700 nM and the melting point was 186 °C.
For `CC(C)(O)c1ncccc1N1CCN(c2ccncc2)CC1` [Compound 70], the EC50 (rgRSV224 virus) was 19100 nM, the CC50 at 3 days [1] was > 100000 nM and the melting point was 163 °C.
With `Fc1cccc(-c2nccnc2N2CCN(c3ccccc3)CC2)c1` [Compound 6] the EC50 (rgRSV224 virus) was 575 nM, the CC50 at 3 days [1] was > 100000 nM and the melting point was 139.51 °C.
